From ChEMBL document CHEMBL2413072, “Synthesis and in vitro anticancer studies of novel C-2 arylidene congeners of lantadenes” (2013)

Columns and labels:
Type in all cases: functional
[1] = test system: OVCAR-3; assay: Growth inhibition of human OVCAR3 cells assessed as cell growth at 10^-7 M by sulforhodamine B assay; details: read-out: Activity
[2] = test system: SNB-19; assay: Growth inhibition of human SNB19 cells assessed as cell growth at 10^-7 M by sulforhodamine B assay; details: read-out: Activity
[3] = test system: HOP-62; assay: Growth inhibition of human HOP62 cells by sulforhodamine B assay
[4] = test system: NCI-H522; assay: Growth inhibition of human NCI-H522 cells by sulforhodamine B assay
[5] = test system: UACC-257; assay: Growth inhibition of human UACC257 cells assessed as cell growth at 10^-4 M by sulforhodamine B assay; details: read-out: Activity
[6] = test system: 786-0; assay: Growth inhibition of human 786-0 cells by sulforhodamine B assay
[7] = test system: HL-60(TB); assay: Growth inhibition of human HL-60(TB) cells assessed as cell growth at 10^-8 M by sulforhodamine B assay; details: read-out: Activity
[8] = test system: U-251; assay: Growth inhibition of human U251 cells assessed as cell growth at 10^-7 M by sulforhodamine B assay; details: read-out: Activity
[9] = test system: RXF 393; assay: Growth inhibition of human RXF393 cells assessed as cell growth at 10^-4 M by sulforhodamine B assay; details: read-out: Activity
[10] = test system: HOP-62; assay: Growth inhibition of human HOP62 cells assessed as cell growth at 10^-6 M by sulforhodamine B assay; details: read-out: Activity
[11] = test system: NCI-H460; assay: Growth inhibition of human NCI-H460 cells assessed as cell growth at 10^-7 M by sulforhodamine B assay; details: read-out: Activity
[12] = test system: OVCAR-8; assay: Growth inhibition of human OVCAR8 cells assessed as cell growth at 10^-6 M by sulforhodamine B assay; details: read-out: Activity
[13] = test system: RPMI-8226; assay: Growth inhibition of human RPMI8226 cells by sulforhodamine B assay
[14] = test system: RXF 393; assay: Growth inhibition of human RXF393 cells assessed as cell growth at 10^-8 M by sulforhodamine B assay; details: read-out: Activity
[15] = test system: UO-31; assay: Growth inhibition of human UO31 cells assessed as cell growth at 10^-8 M by sulforhodamine B assay; details: read-out: Activity
[16] = test system: K562; assay: Growth inhibition of human K562 cells by sulforhodamine B assay
[17] = Growth inhibition of human NCI-ADR-RES cells by sulforhodamine B assay
[18] = test system: SNB-75; assay: Growth inhibition of human SNB75 cells assessed as cell growth at 10^-4 M by sulforhodamine B assay; details: read-out: Activity
[19] = test system: SK-MEL-28; assay: Growth inhibition of human SK-MEL-28 cells by sulforhodamine B assay
[20] = test system: UACC-62; assay: Growth inhibition of human UACC62 cells assessed as cell growth at 10^-6 M by sulforhodamine B assay; details: read-out: Activity
[21] = test system: OVCAR-3; assay: Growth inhibition of human OVCAR3 cells assessed as cell growth at 10^-4 M by sulforhodamine B assay; details: read-out: Activity
[22] = test system: PC-3; assay: Growth inhibition of human PC3 cells assessed as cell growth at 10^-8 M by sulforhodamine B assay; details: read-out: Activity
[23] = test system: SF-539; assay: Growth inhibition of human SF539 cells by sulforhodamine B assay
[24] = test system: ACHN; assay: Growth inhibition of human ACHN cells assessed as cell growth at 10^-4 M by sulforhodamine B assay; details: read-out: Activity
[25] = test system: MCF7; assay: Growth inhibition of human MCF7 cells assessed as cell growth at 10^-6 M by sulforhodamine B assay; details: read-out: Activity
[26] = Growth inhibition of human HCC2998 cells by sulforhodamine B assay
[27] = test system: NCI-H322M; assay: Growth inhibition of human NCI-H322M cells assessed as cell growth at 10^-7 M by sulforhodamine B assay; details: read-out: Activity
[28] = test system: DU-145; assay: Growth inhibition of human DU145 cells assessed as cell growth at 10^-8 M by sulforhodamine B assay; details: read-out: Activity
[29] = test system: COLO 205; assay: Growth inhibition of human COLO205 cells assessed as cell growth at 10^-6 M by sulforhodamine B assay; details: read-out: Activity
[30] = test system: NCI-H226; assay: Growth inhibition of human NCI-H226 cells assessed as cell growth at 10^-8 M by sulforhodamine B assay; details: read-out: Activity
[31] = test system: U-251; assay: Growth inhibition of human U251 cells assessed as cell growth at 10^-6 M by sulforhodamine B assay; details: read-out: Activity
[32] = test system: SNB-75; assay: Growth inhibition of human SNB75 cells assessed as cell growth at 10^-7 M by sulforhodamine B assay; details: read-out: Activity
[33] = test system: SK-MEL-2; assay: Growth inhibition of human SK-MEL-2 cells assessed as cell growth at 10^-8 M by sulforhodamine B assay; details: read-out: Activity
[34] = test system: SR; assay: Growth inhibition of human SR cells assessed as cell growth at 10^-6 M by sulforhodamine B assay; details: read-out: Activity
[35] = test system: SF-268; assay: Growth inhibition of human SF268 cells by sulforhodamine B assay
[36] = test system: OVCAR-5; assay: Growth inhibition of human OVCAR5 cells assessed as cell growth at 10^-7 M by sulforhodamine B assay; details: read-out: Activity
[37] = test system: KM12; assay: Growth inhibition of human KM12 cells assessed as cell growth at 10^-6 M by sulforhodamine B assay; details: read-out: Activity
[38] = test system: U-251; assay: Growth inhibition of human U251 cells assessed as cell growth at 10^-8 M by sulforhodamine B assay; details: read-out: Activity
[39] = read-out: LC50 (the source's name)
[40] = read-out: pLC50 (the source's name) (converted)

CC1(C)C[C@@H](O)[C@]2(C(=O)O)CC[C@]3(C)C(=CC[C@@H]4[C@@]5(C)C/C(=C\C=C\c6ccccc6)C(=O)C(C)(C)[C@@H]5CC[C@]43C)[C@@H]2C1 showed a growth at 0.1 µM [1] of 104%, a growth at 0.1 µM [2] of 89% and a GI50 ([3]; read-out: GI50) of 4.72 µM. It also gave an LC50 (concentration killing 50% of cells) ([3]; read-out: LC50) of 83.5 µM, a TGI ([3]; read-out: TGI) of 21.2 µM and a GI50 ([3]; read-out: pGI50 (converted)) of 4.68 µM. It also gave an LC50 (concentration killing 50% of cells) ([3]; read-out: pLC50 (converted)) of 83.2 µM, a TGI ([3]; read-out: pTGI (converted)) of 21.4 µM and a GI50 ([4]; read-out: GI50) of 2460 nM. The CC50 [4, 39] was 29.4 µM, the TGI ([4]; read-out: TGI) was 6.9 µM and the GI50 ([4]; read-out: pGI50 (converted)) was 2450 nM. For the same molecule, the CC50 [4, 40] was 29.5 µM, the TGI ([4]; read-out: pTGI (converted)) was 6.92 µM and the growth at 100 µM [5] was -88%. The GI50 ([6]; read-out: GI50) was 3.44 µM, the CC50 [6, 39] was 43.1 µM and the TGI ([6]; read-out: TGI) was 12.8 µM. It also gave a GI50 ([6]; read-out: pGI50 (converted)) of 3.47 µM, a CC50 [6, 40] of 42.7 µM and a TGI ([6]; read-out: pTGI (converted)) of 12.9 µM. It also gave a growth at 0.01 µM [7] of 101%, a growth at 0.1 µM [8] of 95% and a growth at 100 µM [9] of -92%. For the same molecule, the growth at 1 µM [10] was 97%, the growth at 0.1 µM [11] was 101% and the growth at 1 µM [12] was 93%. The GI50 ([13]; read-out: GI50) was 2580 nM, the CC50 [13, 39] was greater than 100 µM and the TGI ([13]; read-out: TGI) was 7.96 µM. It also gave a GI50 ([13]; read-out: pGI50 (converted)) of 2570 nM, a CC50 [13, 40] greater than 100 µM and a TGI ([13]; read-out: pTGI (converted)) of 7.94 µM. It also gave a growth at 0.01 µM [14] of 94%, a growth at 0.01 µM [15] of 88% and a GI50 ([16]; read-out: GI50) of 3.74 µM. The LC50 ([16]; read-out: LC50) was greater than 100 µM, the TGI ([16]; read-out: TGI) was greater than 100 µM and the GI50 ([16]; read-out: pGI50 (converted)) was 3.72 µM. It also gave an LC50 ([16]; read-out: pLC50 (converted)) greater than 100 µM, a TGI ([16]; read-out: pTGI (converted)) greater than 100 µM and a GI50 ([17]; read-out: GI50) of 3.29 µM. It also gave a CC50 [17, 39] of 43.2 µM, a TGI ([17]; read-out: TGI) of 14.1 µM and a GI50 ([17]; read-out: pGI50 (converted)) of 3.31 µM. The CC50 [17, 40] was 43.7 µM, the TGI ([17]; read-out: pTGI (converted)) was 14.1 µM and the growth at 100 µM [18] was -70%. For the same molecule, the GI50 ([19]; read-out: GI50) was 4.37 µM, the CC50 [19, 39] was 51.8 µM and the TGI ([19]; read-out: TGI) was 17 µM. The GI50 ([19]; read-out: pGI50 (converted)) was 4.37 µM, the CC50 [19, 40] was 51.3 µM and the TGI ([19]; read-out: pTGI (converted)) was 17 µM. For the same molecule, the growth at 1 µM [20] was 88%, the growth at 100 µM [21] was -90% and the growth at 0.01 µM [22] was 97%. It also gave a GI50 ([23]; read-out: GI50) of 2860 nM, a CC50 [23, 39] of 36.7 µM and a TGI ([23]; read-out: TGI) of 10.6 µM. The GI50 ([23]; read-out: pGI50 (converted)) was 2880 nM, the CC50 [23, 40] was 36.3 µM and the TGI ([23]; read-out: pTGI (converted)) was 10.7 µM. It also gave a growth at 100 µM [24] of -93%, a growth at 1 µM [25] of 95% and a GI50 ([26]; HCC 2998, read-out: GI50) of 2950 nM. For the same molecule, the CC50 ([26]; HCC 2998, read-out: LC50 (the source's name)) was 27.9 µM, the TGI ([26]; HCC 2998, read-out: TGI) was 7.55 µM and the GI50 ([26]; HCC 2998, read-out: pGI50 (converted)) was 2950 nM. It also gave a CC50 ([26]; HCC 2998, read-out: pLC50 (the source's name) (converted)) of 28.2 µM, a TGI ([26]; HCC 2998, read-out: pTGI (converted)) of 7.59 µM and a growth at 0.1 µM [27] of 96%. For the same molecule, the growth at 0.01 µM [28] was 106%, the growth at 1 µM [29] was 108% and the growth at 0.01 µM [30] was 97%. It also gave a growth at 1 µM [31] of 85%, a growth at 0.1 µM [32] of 89% and a growth at 0.01 µM [33] of 86%. For the same molecule, the growth at 1 µM [34] was 94%, the GI50 ([35]; read-out: GI50) was 3.36 µM and the LC50 ([35]; read-out: LC50) was 45.5 µM. It also gave a TGI ([35]; read-out: TGI) of 14 µM, a GI50 ([35]; read-out: pGI50 (converted)) of 3.39 µM and an LC50 ([35]; read-out: pLC50 (converted)) of 45.7 µM. It also gave a TGI ([35]; read-out: pTGI (converted)) of 14.1 µM, a growth at 0.1 µM [36] of 92% and a growth at 1 µM [37] of 92%. It also gave a growth at 0.01 µM [38] of 92%.
